{
  "source": "patent US11708348B2",
  "about": "“Protease inhibitors for treatment of coronavirus infections” (The Scripps Research Institute, priority 2021, dated 2023)",
  "key": {"COVID-2 M^pro protease": {"biological_target": "COVID-2 M^pro protease (Severe acute respiratory syndrome coronavirus 2, UniProt P0DTD1)", "conditions": "cell and enzyme assays; cited from earlier work"}, "[1]": {"system": "hospitalized COVID-19 patients", "conditions": "large multi-center trial; cited from earlier work"}, "[2]": {"system": "SARS-CoV-2 strain USA-WA1/2020", "experiment": "microbe, parasite or virus in culture", "format": "cell-based", "conditions": "Severe acute respiratory syndrome coronavirus 2, HeLa-ACE2, 24 h, HeLa-ACE2 cells, SARS-CoV-2 infection, 24 h, read-out: EC50, uM (Hela)"}},
  "note": "Where two headings read alike, the source gives them in different places.",
  "data": [
    {"smiles": "COCC(=O)[C@H](C[C@@H]1CCNC1=O)NC(=O)[C@H](CC(C)C)NC(=O)c1cc2c(OC)cccc2[nH]1", "note": "[methyl ether of PF-00835231]", "values": [
      {"measurement": "fold less active than PF-00835231", "setting": "COVID-2 M^pro protease", "value": "3-5 fold"}
    ]},
    {"smiles": "Cc1cccc(C)c1OCC(=O)N[C@@H](Cc1ccccc1)[C@@H](O)C[C@H](Cc1ccccc1)NC(=O)[C@H](C(C)C)N1CCCNC1=O", "note": "[lopinavir]", "values": [
      {"measurement": "mortality of hospitalized COVID-19 patients", "setting": "[1]", "value": "failed to reduce mortality"}
    ]},
    {"smiles": "CCN(CCO)CCCC(C)Nc1ccnc2cc(Cl)ccc12", "note": "(centres unmarked) [hydroxychloroquine]", "values": [
      {"measurement": "mortality of hospitalized COVID-19 patients", "setting": "[1]", "value": "failed to reduce mortality"}
    ]},
    {"smiles": "C[C@H](C(=O)N1CC2(CC2)C[C@H]1C(=O)N[C@@H](C[C@@H]1CCNC1=O)C(=O)COC(F)(F)F)c1ccccc1", "note": "[Compound 628, (S)-N-((S)-3-oxo-1-((S)-2-oxopyrrolidin-3-yl)-4-(trifluoromethoxy)butan-2-yl)-5-((S)-2-phenylpropanoyl)-5-azaspiro[2.4]heptane-6-carboxamide]", "values": [
      {"measurement": "EC50", "setting": "[2]", "value": "0.05 to 0.2", "unit": "µM"}
    ]},
    {"smiles": "CC[C@@H](OC)C(=O)N[C@@H](CC(C)C)C(=O)N[C@@H](C[C@@H]1CCNC1=O)C(=O)COC(F)(F)F", "note": "[Compound 337, (S)-2-((R)-2-methoxybutanamido)-4-methyl-N-((S)-3-oxo-1-((S)-2-oxopyrrolidin-3-yl)-4-(trifluoromethoxy)butan-2-yl)pentanamide]", "values": [
      {"measurement": "EC50", "setting": "[2]; class symbols", "value": "0.05 to 0.2", "unit": "µM"}
    ]},
    {"smiles": "O=C(Nc1ccccc1F)C(=O)N1C[C@H]2C[C@]1(C(=O)N[C@@H](C[C@@H]1CCNC1=O)C(=O)COC(F)(F)F)C2", "note": "[Compound 562, (1 s,4R)-2-(2-((2-fluorophenyl)amino)-2-oxoacetyl)-N-((S)-3-oxo-1-((S)-2-oxopyrrolidin-3-yl)-4-(trifluoromethoxy)butan-2-yl)-2-azabicyclo-[2.1.1]hexane-1-carboxamide]", "values": [
      {"measurement": "EC50", "setting": "[2]; given as bound", "value": "> 1", "unit": "µM"}
    ]},
    {"smiles": "O=C1NCC[C@H]1C[C@@H](NC(=O)[C@@H]1C[C@H]2C[C@H]2N1C(=O)[C@@H]1CCCO1)C(=O)COC(F)(F)F", "note": "[Compound 326, (1R,3S,5R)-N-(3-oxo-1-((S)-2-oxopyrrolidin-3-yl)-4-(trifluoromethoxy)butan-2-yl)-2-((S)-tetrahydrofuran-2-carbonyl)-2-azabicyclo[3.1.0]-hexane-3-carboxamide]", "values": [
      {"measurement": "EC50", "setting": "[2]; bound printed in cell", "value": "> 1", "unit": "µM"}
    ]},
    {"smiles": "O=C(N[C@@H](CC1CCCCC1)C(=O)N[C@@H](C[C@@H]1CCNC1=O)C(=O)COc1c(F)c(F)cc(F)c1F)c1cc2ccccc2[nH]1", "note": "[Compound 5, N-((S)-3-cyclohexyl-1-oxo-1-(((S)-3-oxo-l-((S)-2-oxopyrrolidin-3-yl)-4-(2,3,5,6-tetrafluorophenoxy)butan-2-yl)amino)propan-2-yl)-1H-indole-2-carboxamide]", "values": [
      {"measurement": "EC50", "setting": "[2]; class symbols", "value": "0.05 to 0.2", "unit": "µM"}
    ]}
  ]
}
